Measured values as given in ChEMBL document CHEMBL4339199 (ACS Med Chem Lett, 2019).
Activity calls are given as the source filed them. The rule behind the calls is not given here.

How the values were obtained:
Blood = assay: Inhibition of IL2-induced IFNgamma production in CD3/CD28 antibody-stimulated human whole blood measured after 18 hrs by ELISA; format: functional, tissue-based
[1] = molecular target: T1, Tyrosine-protein kinase JAK3 (Homo sapiens, UniProt P52333); assay: Inhibition of GST-tagged JAK3 (unknown origin) using fluoresceinated peptide as substrate measured after 3 hrs by electrophoresis method
T1 sequence (P52333 whole entry): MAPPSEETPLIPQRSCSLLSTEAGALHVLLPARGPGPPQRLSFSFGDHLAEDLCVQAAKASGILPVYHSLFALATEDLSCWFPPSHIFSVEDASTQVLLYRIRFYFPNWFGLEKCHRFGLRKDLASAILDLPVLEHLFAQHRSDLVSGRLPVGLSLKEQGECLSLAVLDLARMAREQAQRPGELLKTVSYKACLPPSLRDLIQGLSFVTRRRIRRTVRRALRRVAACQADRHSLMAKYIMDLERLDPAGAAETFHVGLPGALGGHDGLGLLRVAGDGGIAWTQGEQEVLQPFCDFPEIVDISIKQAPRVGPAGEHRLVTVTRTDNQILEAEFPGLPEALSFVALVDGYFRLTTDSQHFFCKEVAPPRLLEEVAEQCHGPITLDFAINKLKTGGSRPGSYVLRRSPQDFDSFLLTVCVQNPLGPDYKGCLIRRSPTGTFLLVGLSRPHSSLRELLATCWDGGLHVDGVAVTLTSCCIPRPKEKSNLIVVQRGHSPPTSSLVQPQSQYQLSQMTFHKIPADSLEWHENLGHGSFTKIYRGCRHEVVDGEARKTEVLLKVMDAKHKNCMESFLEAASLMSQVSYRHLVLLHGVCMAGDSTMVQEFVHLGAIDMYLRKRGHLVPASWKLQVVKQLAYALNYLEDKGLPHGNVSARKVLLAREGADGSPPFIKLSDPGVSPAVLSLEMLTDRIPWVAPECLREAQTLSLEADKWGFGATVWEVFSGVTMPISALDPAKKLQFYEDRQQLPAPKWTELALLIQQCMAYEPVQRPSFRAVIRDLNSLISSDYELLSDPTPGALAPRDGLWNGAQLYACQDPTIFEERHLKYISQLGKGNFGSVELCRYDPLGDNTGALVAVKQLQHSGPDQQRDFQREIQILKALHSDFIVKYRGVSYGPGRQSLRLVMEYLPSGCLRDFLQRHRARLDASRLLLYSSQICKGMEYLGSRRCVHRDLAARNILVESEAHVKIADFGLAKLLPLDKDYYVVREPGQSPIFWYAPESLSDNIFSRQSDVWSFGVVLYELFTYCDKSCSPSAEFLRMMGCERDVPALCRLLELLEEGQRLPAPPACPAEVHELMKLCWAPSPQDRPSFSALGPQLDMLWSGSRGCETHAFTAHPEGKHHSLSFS

T-cell = assay: Inhibition of IL2-induced human PBMC-derived T cell proliferation preincubated for 60 mins followed by IL-2 stimulation and measured after 3 days by [3H]thymidine incorporation based topcount method; format: functional
[2] = molecular target: Tyrosine-protein kinase JAK1 (Homo sapiens, UniProt P23458); assay: Inhibition of GST-tagged JAK1 (unknown origin) using fluoresceinated peptide as substrate measured after 3 hrs by electrophoresis method
Sequence of Tyrosine-protein kinase JAK1 (P23458 whole entry): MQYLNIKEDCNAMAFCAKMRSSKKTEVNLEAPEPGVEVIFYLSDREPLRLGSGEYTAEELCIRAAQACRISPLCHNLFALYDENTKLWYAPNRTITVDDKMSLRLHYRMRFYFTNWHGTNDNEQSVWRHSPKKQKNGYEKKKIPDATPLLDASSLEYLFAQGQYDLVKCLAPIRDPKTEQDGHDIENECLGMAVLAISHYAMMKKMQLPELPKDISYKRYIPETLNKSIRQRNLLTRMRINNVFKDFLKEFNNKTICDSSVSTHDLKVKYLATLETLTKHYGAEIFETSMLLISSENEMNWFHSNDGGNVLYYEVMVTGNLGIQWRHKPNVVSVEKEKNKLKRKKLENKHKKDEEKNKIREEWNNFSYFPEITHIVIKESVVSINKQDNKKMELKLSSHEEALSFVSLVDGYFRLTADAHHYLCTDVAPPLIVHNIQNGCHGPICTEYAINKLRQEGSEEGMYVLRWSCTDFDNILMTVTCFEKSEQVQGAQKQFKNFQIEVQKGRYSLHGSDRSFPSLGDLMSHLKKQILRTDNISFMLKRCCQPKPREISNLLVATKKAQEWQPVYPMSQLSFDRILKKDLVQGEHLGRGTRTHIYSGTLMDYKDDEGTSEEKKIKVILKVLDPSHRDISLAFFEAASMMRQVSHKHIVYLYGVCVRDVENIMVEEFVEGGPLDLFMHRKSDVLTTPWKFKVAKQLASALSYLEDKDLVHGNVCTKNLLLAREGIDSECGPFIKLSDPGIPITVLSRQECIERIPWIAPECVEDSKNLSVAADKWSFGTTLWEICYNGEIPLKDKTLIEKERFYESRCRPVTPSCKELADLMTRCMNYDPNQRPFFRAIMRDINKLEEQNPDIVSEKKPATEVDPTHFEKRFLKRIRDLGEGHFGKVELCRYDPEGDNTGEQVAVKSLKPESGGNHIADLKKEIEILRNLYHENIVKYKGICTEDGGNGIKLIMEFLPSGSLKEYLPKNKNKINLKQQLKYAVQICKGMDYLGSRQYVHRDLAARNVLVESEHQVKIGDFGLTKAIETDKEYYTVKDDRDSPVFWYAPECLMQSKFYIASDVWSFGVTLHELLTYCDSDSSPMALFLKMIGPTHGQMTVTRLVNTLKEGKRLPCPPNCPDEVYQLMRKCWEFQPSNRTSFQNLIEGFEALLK

[3] = molecular target: Non-receptor tyrosine-protein kinase TYK2 (Homo sapiens, UniProt P29597); assay: Inhibition of […] TYK2 (unknown origin) using fluoresceinated peptide as substrate measured after 3 hrs by electrophoresis method
Sequence of Non-receptor tyrosine-protein kinase TYK2 (P29597 whole entry): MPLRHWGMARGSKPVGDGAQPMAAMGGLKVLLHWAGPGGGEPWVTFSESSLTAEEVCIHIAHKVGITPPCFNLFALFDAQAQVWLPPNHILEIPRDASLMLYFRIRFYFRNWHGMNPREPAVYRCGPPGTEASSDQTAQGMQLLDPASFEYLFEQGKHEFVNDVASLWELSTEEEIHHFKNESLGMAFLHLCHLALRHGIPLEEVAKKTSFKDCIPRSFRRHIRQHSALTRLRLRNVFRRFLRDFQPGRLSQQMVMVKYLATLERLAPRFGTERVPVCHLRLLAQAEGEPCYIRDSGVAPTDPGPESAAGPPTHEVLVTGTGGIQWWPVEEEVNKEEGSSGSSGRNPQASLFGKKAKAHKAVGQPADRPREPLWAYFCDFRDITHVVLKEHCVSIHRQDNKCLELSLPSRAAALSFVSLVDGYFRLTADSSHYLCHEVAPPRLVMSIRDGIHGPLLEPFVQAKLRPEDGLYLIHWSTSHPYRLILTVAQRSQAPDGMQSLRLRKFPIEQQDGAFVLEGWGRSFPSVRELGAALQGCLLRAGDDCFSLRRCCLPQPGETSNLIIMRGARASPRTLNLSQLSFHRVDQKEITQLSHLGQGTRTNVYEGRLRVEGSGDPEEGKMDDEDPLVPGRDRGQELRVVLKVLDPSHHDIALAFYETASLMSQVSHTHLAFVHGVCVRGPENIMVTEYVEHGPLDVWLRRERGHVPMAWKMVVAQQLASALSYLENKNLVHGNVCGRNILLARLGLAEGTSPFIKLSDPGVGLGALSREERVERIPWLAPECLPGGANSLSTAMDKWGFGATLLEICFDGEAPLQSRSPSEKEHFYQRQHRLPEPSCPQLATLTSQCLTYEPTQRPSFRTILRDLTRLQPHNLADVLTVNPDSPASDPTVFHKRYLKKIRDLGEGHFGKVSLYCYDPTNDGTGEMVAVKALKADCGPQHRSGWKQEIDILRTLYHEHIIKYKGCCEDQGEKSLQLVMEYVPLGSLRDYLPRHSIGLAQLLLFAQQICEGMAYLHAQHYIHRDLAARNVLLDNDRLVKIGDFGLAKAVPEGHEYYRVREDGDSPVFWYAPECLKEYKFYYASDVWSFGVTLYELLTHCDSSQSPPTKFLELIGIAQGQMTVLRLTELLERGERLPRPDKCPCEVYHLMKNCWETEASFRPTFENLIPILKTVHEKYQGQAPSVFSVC

[4] = molecular target: Tyrosine-protein kinase JAK2 (Homo sapiens, UniProt O60674); assay: Inhibition of GST-tagged JAK2 (unknown origin) using fluoresceinated peptide as substrate measured after 3 hrs by electrophoresis method
Sequence of Tyrosine-protein kinase JAK2 (O60674 whole entry): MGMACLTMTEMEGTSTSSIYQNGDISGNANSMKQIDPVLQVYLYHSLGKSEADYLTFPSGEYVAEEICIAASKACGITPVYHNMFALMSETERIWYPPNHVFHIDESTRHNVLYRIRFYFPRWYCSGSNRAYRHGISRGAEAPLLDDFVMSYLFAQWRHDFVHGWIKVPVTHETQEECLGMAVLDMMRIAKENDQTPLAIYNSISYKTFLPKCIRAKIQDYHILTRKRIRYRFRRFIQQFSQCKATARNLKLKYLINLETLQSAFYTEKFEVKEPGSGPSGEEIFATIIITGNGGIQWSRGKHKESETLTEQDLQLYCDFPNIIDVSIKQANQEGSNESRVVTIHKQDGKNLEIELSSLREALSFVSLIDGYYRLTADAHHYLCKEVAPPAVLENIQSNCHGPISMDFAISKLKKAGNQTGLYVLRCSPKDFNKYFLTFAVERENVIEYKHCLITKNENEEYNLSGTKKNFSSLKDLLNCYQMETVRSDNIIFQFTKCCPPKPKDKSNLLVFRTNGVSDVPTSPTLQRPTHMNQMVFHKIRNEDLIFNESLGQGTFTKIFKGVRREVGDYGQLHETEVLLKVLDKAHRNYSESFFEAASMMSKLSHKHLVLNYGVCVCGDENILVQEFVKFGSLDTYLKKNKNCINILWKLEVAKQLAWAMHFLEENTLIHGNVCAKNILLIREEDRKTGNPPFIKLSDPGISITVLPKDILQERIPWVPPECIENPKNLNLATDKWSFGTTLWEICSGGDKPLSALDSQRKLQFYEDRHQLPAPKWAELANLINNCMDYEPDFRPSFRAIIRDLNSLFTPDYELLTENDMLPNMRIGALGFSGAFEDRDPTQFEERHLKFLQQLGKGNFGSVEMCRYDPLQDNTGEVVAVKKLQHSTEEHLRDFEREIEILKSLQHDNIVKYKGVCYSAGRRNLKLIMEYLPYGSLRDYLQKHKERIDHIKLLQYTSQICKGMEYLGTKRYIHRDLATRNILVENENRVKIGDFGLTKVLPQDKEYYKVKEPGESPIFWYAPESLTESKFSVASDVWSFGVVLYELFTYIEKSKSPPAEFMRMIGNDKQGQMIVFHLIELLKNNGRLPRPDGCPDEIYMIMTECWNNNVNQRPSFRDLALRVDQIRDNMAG

Mus musculus [5] = assay: Antiinflammatory activity in DBA1 mouse model of collagen-induced inflammation assessed as reduction in rheumatoid arthritis score in paw at 6.6 mg/kg administered daily via oral gavage for 21 days starting from 21 days post-immunization and measured 3 times every week following booster immunization; format: functional, organism-based
[6] = Aqueous solubility of the compound; format: physicochemical; details: buffer
[7] = Stability in mouse microsomes assessed as parent compound remaining measured after 10 mins; format: ADME, Microsome; details: read-out: Stability
[8] = Octanol-water partition coefficient, log P of the compound at pH 6.5 by HPLC analysis; format: physicochemical
[9] = Solubility of the compound in water; format: physicochemical; details: buffer
[10] = AUC in mouse at 40 mg/kg, po; format: ADME, organism-based; details: in vivo
[11] = Prodrug conversion in DBA1 mouse assessed as 4-((2R,3R)-l,3-Dihydroxybutan-2-ylamino)-6-phenylpyrrolo [ 1,2-b]pyridazine-3 carboxamide formation at 140 mg/kg, po administered via gavage; format: ADME, organism-based; details: in vivo
Mus musculus [12] = assay: Antiinflammatory activity in DBA1 mouse model of collagen-induced inflammation assessed as reduction in rheumatoid arthritis score in paw administered daily via oral gavage for 21 days starting from 21 days post-immunization and measured 3 times every week following booster immunization; format: functional, organism-based
[13] = AUC in mouse at 10 mg/kg, po; format: ADME, organism-based; details: in vivo
[14] = Lipophilicity, log P of the compound; format: physicochemical; details: octanol/water
[15] = Cmax in mouse at 50 mg/kg, po administered as microsuspension formulation; format: ADME, organism-based; design: dose 50 mg/kg, route oral; details: in vivo
[16] = Permeability of the compound by PAMPA; format: ADME
[17] = Cmax in mouse at 10 mg/kg, po; format: ADME, organism-based; design: dose 10 mg/kg, route oral; details: in vivo
[18] = Time at which plasma concentration stays above in vitro IC50 for inhibition of IL2-induced IFNgamma production in CD3/CD28 antibody-stimulated human whole blood in mouse at 10 mg/kg, po; format: organism-based; details: in vivo
[19] = Solubility of the compound in water using amorphous compound; format: physicochemical; details: buffer
[20] = Stability in mouse liver microsomes; format: ADME, Microsome
[21] = Stability in human liver microsomes; format: ADME, Microsome
[22] = Stability in rat liver microsomes; format: ADME, Microsome
[23] = Solubility of the compound in 5%EtOH/5%TPGS/90%PEG300 formulation; format: physicochemical
[24] = Solubility of the compound in phosphate buffer using crystalline compound; format: physicochemical

IC50 (Blood)	IC50 [1]	IC50 [2]	IC50 [3]	IC50 [4]	Compound	IC50 (T-cell; Homo sapiens, T-cell)	other results
> 4 µM	0.015 µM	0.04 µM	0.15 µM	0.19 µM	CC(C)Nc1c(C(N)=O)cnn2cc(-c3ccccc3)cc12		solubility [6]: < 1 µg/mL; remaining at 10 min [7]: < 50%
	0.16 µM	0.18 µM	1.3 µM	1.8 µM	C[C@H](O)[C@H](CO)Nc1c(C(N)=O)cnn2cc(-c3ccccc3)cc12	2 µM	
> 4 µM	0.011 µM	0.11 µM	0.16 µM	0.22 µM	CC(C)CCNc1c(C(N)=O)cnn2cc(-c3ccccc3)cc12		solubility [6]: < 1 µg/mL; logP [14]: 5.08; remaining at 10 min [7]: < 50%
> 4 µM	0.008 µM	0.033 µM	0.07 µM	0.11 µM	CC(C)(C)CNc1c(C(N)=O)cnn2cc(-c3ccccc3)cc12		solubility [6]: < 1 µg/mL; remaining at 10 min [7]: < 50%
0.5 µM		0.005 µM	0.034 µM	0.07 µM	C[C@@H](O)[C@@H](CO)Nc1c(C(N)=O)cnn2cc(-c3ccccc3)cc12	0.07 µM	Cmax [15]: 0.1 µM; permeability [16]: Permeable; Cmax [17]: > 3 µM; Time [18]: 3 h; logD [8]: 2.42; solubility [19]: Insoluble; Stability [20]: Stable; Stability [21]: Stable; Stability [22]: Stable; solubility [23]: Insoluble; solubility [24]: Insoluble
> 4 µM	0.004 µM	0.03 µM	0.063 µM	0.16 µM	CC(C)CNc1c(C(N)=O)cnn2cc(-c3ccccc3)cc12		solubility [6]: < 1 µg/mL; logP [14]: 3.94; remaining at 10 min [7]: < 50%

Further lines, the molecule ahead of its results:

Compound	IC50 (Blood)	IC50 [1]	IC50 [2]	IC50 [3]	IC50 [4]	IC50 (T-cell; Homo sapiens, T-cell)	other results
COc1ccc(-c2cc3c(N[C@H](CO)CC4CC4)c(C(N)=O)cnn3c2)cn1	> 4 µM	0.001 µM	0.032 µM	0.12 µM	0.025 µM	0.29 µM	
C[C@@H]1CCN(C(=O)CC#N)C[C@@H]1N(C)c1ncnc2[nH]ccc12							Activity (Mus musculus [5]): Active
C[C@H](O)[C@@H](CO)Nc1c(C(N)=O)cnn2cc(-c3ccccc3)cc12		0.013 µM	0.038 µM	0.21 µM	0.37 µM	0.87 µM	
COc1ccc(-c2cc3c(NC(CO)CO)c(C(N)=O)cnn3c2)cn1		0.038 µM	0.2 µM	0.33 µM		11 µM	
C[C@@H](O)[C@H](CO)Nc1c(C(N)=O)cnn2cc(-c3ccccc3)cc12		0.18 µM	0.11 µM	0.51 µM	1.7 µM	1.8 µM	
NC(=O)c1cnn2cc(-c3ccccc3)cc2c1NC1CCCC1	> 4 µM	0.005 µM	0.013 µM	0.02 µM	0.05 µM		solubility [6]: < 1 µg/mL; remaining at 10 min [7]: < 50%
COc1ccc(-c2cc3c(N[C@H](CO)[C@@H](C)O)c(C(N)=O)cnn3c2)cn1		0.002 µM		0.027 µM	0.057 µM	0.37 µM	logD [8]: 2.2
C[C@@H](O)[C@@H](COP(=O)([O-])[O-])Nc1c(C(N)=O)cnn2cc(-c3ccccc3)cc12.[Na+].[Na+]							solubility [9]: Soluble; AUC [10]: 6 µM·h; Drug metabolism [11]: Metabolite_Detected; Activity (Mus musculus [12]): Dose-dependent effect; AUC [13]: 1 µM·h
COc1ccc(-c2cc3c(N[C@H](CO)CC(C)C)c(C(N)=O)cnn3c2)cn1	3.9 µM	0.003 µM	0.023 µM	0.18 µM	0.03 µM	0.19 µM	
COc1ccc(-c2cc3c(NC(CO)[C@H](O)C4CC4)c(C(N)=O)cnn3c2)cn1 (stereo in doubt; 18)		0.1 µM	0.62 µM	2 µM	1.4 µM		IC50 (T-cell; t-cell): 4.8 µM
COc1ccc(-c2cc3c(NC(CO)[C@H](O)C4CC4)c(C(N)=O)cnn3c2)cn1 (stereo in doubt; 19)	0.73 µM	0.002 µM	0.021 µM	0.13 µM	0.045 µM		IC50 (T-cell; t-cell): 0.5 µM
